Reference: patent US20230277519A1, “IRAK4 DEGRADERS AND USES THEREOF” (Kymera Therapeutics, Inc., priority 2022, published 2023)

Experiments:
[1] = system: IRAK4, Ikaros, and Aiolos; experiment: Duration of target degradation in patients (Phase 1a); type: in vivo, human; conditions: once every three-week dosing
Text: (§1) Patients who provide informed consent and meet the eligibility criteria for the study will be enrolled and treated with Compound A administered intravenously (IV) on Day 1 of a 21-day schedule (Schedule 1). An alternative schedule of Compound A administered IV on Day 1 and Day 2 of a 21-day schedule (Schedule 2) may also be evaluated based on emerging pharmacokinetic, pharmacodynamic, and safety data observed in Schedule 1. If Schedule 2 is investigated, the first dose level will represent a split dose of the highest dose previously determined to be tolerable in Schedule 1 with the total dose administered in Schedule 2 being equivalent to the total dose administered in Schedule 1. Subsequent dose levels for Schedule 2 will follow the same dose escalation scheme as described for Schedule 1. If the sponsor and investigators determine that, based on the observed safety, PK, preliminary efficacy, and/or the PD profile, Schedule 2 may not be beneficial to patients, then the study will proceed immediately to Phase 1b after the Schedule 1 MTD/RP2D is determined and Schedule 2 may not be evaluated. • Schedule 1: Dose D1 on a 21-day schedule • Schedule 2: Dose D1, D2 on a 21-day schedule

[2] = biological target: T1, Ikaros (Homo sapiens, UniProt Q13422); experiment: Ikaros degradation in tumor by targeted MS (Phase 1a); type: in vivo; conditions: patients, IV, DL1, targeted MS
T1 construct: from tissue; host or cells: tumor tissue of R/R B-cell NHL patients
Description: (§2) In some embodiments, the present disclosure provides a method of administering Compound A to a patient in need thereof, comprising administering to said patient a therapeutically effective amount of Compound A or a pharmaceutically acceptable salt thereof (e.g., in a liquid formulation or a unit dose form as described herein), wherein greater than 40%, 50%, 60%, 70%, 80%, or 90% of Ikaros degradation in blood or tumor is achieved (e.g., by measuring, at 48 hours post-administration, Ikaros levels using mass spectrometry or lymphocytes and monocytes using flow cytometry).
as §1, with “If the sponsor and investigators determine that, based on the observed safety, PK, preliminary efficacy, and/or the PD profile, Schedule 2 may not be beneficial to patients, then the study will proceed immediately to Phase 1b after the Schedule 1 MTD/RP2D is determined and Schedule 2 may not be evaluated. • Schedule 1: Dose D1 on a 21-day schedule • Schedule 2: Dose D1, D2 on a 21-day schedule” left out

[3] = biological target: T2, IRAK4 (Homo sapiens, UniProt Q9NWZ3); experiment: IRAK4 degradation in tumor by targeted MS (Phase 1a); type: in vivo; conditions: patients, IV, DL1, targeted MS
T2 construct: from tissue; host or cells: tumor tissue of R/R B-cell NHL patients
T2 sequence (Q9NWZ3 1-460): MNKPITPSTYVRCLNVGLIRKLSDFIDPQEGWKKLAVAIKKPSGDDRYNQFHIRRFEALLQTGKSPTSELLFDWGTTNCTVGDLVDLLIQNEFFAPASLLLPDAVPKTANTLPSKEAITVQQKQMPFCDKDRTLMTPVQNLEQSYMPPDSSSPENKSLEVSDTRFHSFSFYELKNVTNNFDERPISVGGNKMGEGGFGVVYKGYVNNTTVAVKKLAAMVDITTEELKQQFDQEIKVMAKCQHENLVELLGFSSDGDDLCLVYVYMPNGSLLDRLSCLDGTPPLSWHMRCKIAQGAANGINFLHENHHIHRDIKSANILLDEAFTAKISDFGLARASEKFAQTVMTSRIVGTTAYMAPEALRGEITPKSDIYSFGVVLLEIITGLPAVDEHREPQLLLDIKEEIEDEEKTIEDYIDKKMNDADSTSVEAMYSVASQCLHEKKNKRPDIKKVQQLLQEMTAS
Description: as §2, with “great” for “greater”, “than 30%,” for “than”, “IRAK4” for “Ikaros”
as §1, with “If the sponsor and investigators determine that, based on the observed safety, PK, preliminary efficacy, and/or the PD profile, Schedule 2 may not be beneficial to patients, then the study will proceed immediately to Phase 1b after the Schedule 1 MTD/RP2D is determined and Schedule 2 may not be evaluated. • Schedule 1: Dose D1 on a 21-day schedule • Schedule 2: Dose D1, D2 on a 21-day schedule” left out

[4] = biological target: T3, Aiolos (Homo sapiens, UniProt Q9UKT9); experiment: Aiolos degradation in tumor by targeted MS (Phase 1a); type: in vivo; conditions: patients, IV, DL1, targeted MS
T3 construct: from tissue; host or cells: tumor tissue of R/R B-cell NHL patients
Description: as §2, with “than” for “than 40%, 50%,”, “Aiolos” for “Ikaros”
as §1, with “If the sponsor and investigators determine that, based on the observed safety, PK, preliminary efficacy, and/or the PD profile, Schedule 2 may not be beneficial to patients, then the study will proceed immediately to Phase 1b after the Schedule 1 MTD/RP2D is determined and Schedule 2 may not be evaluated. • Schedule 1: Dose D1 on a 21-day schedule • Schedule 2: Dose D1, D2 on a 21-day schedule” left out

[5] = biological target: T3, Aiolos; experiment: Aiolos degradation in blood by PBMC FLOW (Phase 1a); type: in vivo; conditions: patients with R/R B-cell NHL, IV, DL1 and DL2, PBMC FLOW
Description: as §2, with “than” for “than 40%, 50%,”, “Aiolos” for “Ikaros”
as §1, with “If the sponsor and investigators determine that, based on the observed safety, PK, preliminary efficacy, and/or the PD profile, Schedule 2 may not be beneficial to patients, then the study will proceed immediately to Phase 1b after the Schedule 1 MTD/RP2D is determined and Schedule 2 may not be evaluated. • Schedule 1: Dose D1 on a 21-day schedule • Schedule 2: Dose D1, D2 on a 21-day schedule” left out

[6] = Plasma concentration and PK in patients (Phase 1a); type: in vivo, human; conditions: IV, DL1 and DL2, plasma
Text: as §1

[7] = biological target: T2, IRAK4; experiment: IRAK4 degradation in blood by PBMC FLOW (Phase 1a); type: in vivo; conditions: patients with R/R B-cell NHL, IV, DL1 and DL2, PBMC FLOW
Description: as §2, with “great” for “greater”, “than 30%,” for “than”, “IRAK4” for “Ikaros”
as §1, with “If the sponsor and investigators determine that, based on the observed safety, PK, preliminary efficacy, and/or the PD profile, Schedule 2 may not be beneficial to patients, then the study will proceed immediately to Phase 1b after the Schedule 1 MTD/RP2D is determined and Schedule 2 may not be evaluated. • Schedule 1: Dose D1 on a 21-day schedule • Schedule 2: Dose D1, D2 on a 21-day schedule” left out

[8] = biological target: T1, Ikaros; experiment: Ikaros degradation in blood by PBMC FLOW (Phase 1a); type: in vivo; conditions: patients with R/R B-cell NHL, IV, DL1 and DL2, PBMC FLOW
Description: as §2
as §1, with “If the sponsor and investigators determine that, based on the observed safety, PK, preliminary efficacy, and/or the PD profile, Schedule 2 may not be beneficial to patients, then the study will proceed immediately to Phase 1b after the Schedule 1 MTD/RP2D is determined and Schedule 2 may not be evaluated. • Schedule 1: Dose D1 on a 21-day schedule • Schedule 2: Dose D1, D2 on a 21-day schedule” left out

T1 sequence (Q13422 whole entry): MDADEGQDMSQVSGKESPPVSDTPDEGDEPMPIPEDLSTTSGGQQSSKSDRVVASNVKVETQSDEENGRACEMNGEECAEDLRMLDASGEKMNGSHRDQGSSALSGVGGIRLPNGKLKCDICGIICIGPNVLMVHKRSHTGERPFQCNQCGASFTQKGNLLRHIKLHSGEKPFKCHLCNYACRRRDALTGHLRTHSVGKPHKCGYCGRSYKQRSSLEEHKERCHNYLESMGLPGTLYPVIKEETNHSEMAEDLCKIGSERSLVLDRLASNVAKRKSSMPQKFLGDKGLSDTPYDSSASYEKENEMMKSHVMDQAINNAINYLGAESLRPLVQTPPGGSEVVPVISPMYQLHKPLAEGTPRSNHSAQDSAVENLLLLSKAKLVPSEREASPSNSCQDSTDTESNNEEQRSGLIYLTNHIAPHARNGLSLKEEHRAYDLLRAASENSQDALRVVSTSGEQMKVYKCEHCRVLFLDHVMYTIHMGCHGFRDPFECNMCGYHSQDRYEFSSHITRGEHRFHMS
T3 sequence (Q9UKT9 whole entry): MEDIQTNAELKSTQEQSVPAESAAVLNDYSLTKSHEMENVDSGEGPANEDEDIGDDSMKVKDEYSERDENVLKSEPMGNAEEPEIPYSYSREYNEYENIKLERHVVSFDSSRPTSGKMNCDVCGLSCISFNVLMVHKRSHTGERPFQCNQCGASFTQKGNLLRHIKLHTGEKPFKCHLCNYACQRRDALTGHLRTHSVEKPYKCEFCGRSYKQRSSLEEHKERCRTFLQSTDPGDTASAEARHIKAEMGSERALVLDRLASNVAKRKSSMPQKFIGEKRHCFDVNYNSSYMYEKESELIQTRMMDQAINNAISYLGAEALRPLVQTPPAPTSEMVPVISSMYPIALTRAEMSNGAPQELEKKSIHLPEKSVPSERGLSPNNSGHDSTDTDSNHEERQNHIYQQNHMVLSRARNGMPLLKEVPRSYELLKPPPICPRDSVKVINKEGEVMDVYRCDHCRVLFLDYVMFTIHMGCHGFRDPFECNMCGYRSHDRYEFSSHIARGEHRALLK

CC(C)(O)c1cc2nc([C@H]3CC[C@H](CN4CC5(CC(CCNc6cccc7c6C(=O)N(C6CCC(=O)NC6=O)C7=O)C5)C4)CC3)sc2cc1NC(=O)c1cccc(C(F)(F)F)n1 (some centres unmarked) [Compound A]
Duration of target degradation [1]: At least 72 h
Ikaros KD in tumor [2]: 40-66%
IRAK4 KD in tumor [3]: 27%
Aiolos KD in tumor [4]: 40-66%
KD of Aiolos in PBMC [5]: ≤ 95%
Exposure (plasma concentration and PK) [6]: dose-proportional increase in exposure
IRAK4 degradation in PBMC [7]: Up to 40%
KD of Ikaros in PBMC [8]: ≤ 95%
